Assay results as given in US20240043860A1, “NOVEL HYDROXYPHENYLPYRUVATE DIOXYGENASE POLYPEPTIDES AND METHODS OF USE THEREOF” (Syngenta Crop Protection AG, priority 2020, published 2024).
Several values for one entry are separate records, joined by “and”; a condition that tells them apart may be missing. Equal entries are not always repeated.

Experiments:
[1] = system: transgenic tobacco plants expressing mutant HPPD SEQ ID 20; assay: spray test, herbicidal damage scoring; format: in vivo; conditions: several events expressing SEQ ID 20; 800 g/ha (Table 3.3)
Description: Avena sativa HPPD or orthologues and variants thereof, for example SEQ IDs 1-63 and 122-127, were expressed in transgenic tobacco. DNA sequences that encode these polypeptides (optimized for tobacco or, optionally, codon optimized according to a target crop such as soybean) were prepared synthetically. Each sequence was designed to include a 5′ fusion with TMV omega 5′ leader sequence such that they are flanked at the 5′ end with XhoI and at the 3′ end with KpnI to facilitate direct cloning into a suitable binary vector for Agrobacterium-based plant transformation. […]
Plants are assessed for damage and scored at, for example, 7 and 14 days after treatment (DAT). […]
Plants of events showing the least damage are grown to flowering, then bagged and allowed to self. […] Single copy events amongst the Ti plant lines are identified by their 3:1 segregation ratio (with respect to kanamycin and/or herbicide) and by quantitative RT-PCR. […] HPPD expression levels were monitored by Western analysis.
The tobacco lines expressing SEQ ID 122 were now compared to a population of tobacco which express SEQ ID 20. The plants were sprayed with 800g/ha Bicyclopyrone and scored for damage.

[2] = system: HPPD variant APESV V208 (SEQ ID NO: 15); assay: coupled HGO assay; format: biochemical, Apera spica-venti
Description: (§1) DNA sequences (SEQ ID NOs: 65-118, 128, 130, 131, and 133), synthesized for expression in E. coli, by GeneWiz (USA) to encode HPPD variants (SEQ ID NOs: 5-58, 122, 124, 125 and 127) derived from either Avena sativa (SEQ ID NOs: 122, 124), Alopecurus myosuroides (SEQ ID NO: 126) or Apera spica-venti (SEQ ID NOs: 123, 125) were transformed into E coli BL21 (DE3) (New England Biolabs) and grown in 0.5 ml Terrific broth +50 ug/ml Kanamycin media in a 96-deepwell block overnight (37° C., 900rpm). 25 ul of the overnight cultures were inoculated into fresh 96-deepwell block containing 1 ml Formedium Autoinduction Media (AIM). The AIM cultures were grown for 3h at 37° C. (900rpm) and then transferred to 20° C. overnight (900rpm) to allow protein expression. The overnight cultures were centrifuged and 500 ul of Cellytic B (Sigma Aldrich) was added to resuspend the cell pellets. The coupled HGO assay (Siehl et al, 2014) is used to generate IC50 values for the HPPD variants of interest.
(§2) E. coli BL21 (DE3) cells were transformed with a pET24a vector containing a C-terminally his-tagged Arabidopsis HGO gene, grown and induced overnight as described for the HPPD variants above. The cell pellet was resuspended in phosphate buffered saline at pH 7.4 containing 10% Glycerol, 1mm Tris[2-carboxyethyl] phosphine-HCl (TCEP) plus 30 mM Imidazole and lysed using lysozyme/benzonase. The extract was clarified by low speed centrifugation and purified in the same buffer down a 1 ml His Gravitrap column. The bound HGO was eluted in 0.25M imidazole and the fractions pooled and beaded into liquid nitrogen. All procedures apart from the centrifugation and beading steps were carried out under a nitrogen atmosphere.
(§3) The coupled HGO assay is carried out by adding 10 ul of HPPD extract to a 96-well plate and then adding 40 ul of reaction buffer (50 mM Bis Tris Propane, pH7.0, 25 mM sodium-L-ascorbate, 400μM mercaptoethanol, 50 μM Fe(II)SO4). The plates are left to incubate for 5 minutes on ice. […] 200 ul of HPP/HGO (197 μM hydroxyphenylpyruvic acid, 16 μl/ml Homogentisic Acid Oxidase in reaction buffer as described above) buffer is then added to the well and the reaction is regularly monitored (e.g. every 30 seconds-5 minutes) for absorbance at 330 nm for a given time period (e.g., for between 15-60 minutes). The data can then be used to calculate the IC50 value for each HPPD variant of interest.

[3] = system: HPPD variant APESV V209 (SEQ ID NO: 18); assay: coupled HGO assay; format: biochemical, Apera spica-venti
Description: as §1, §2, §3

[4] = system: HPPD variant APESV V200 (SEQ ID NO: 6); assay: coupled HGO assay; format: biochemical, Apera spica-venti
Description: as §1, §2, §3

[5] = system: transgenic tobacco plants expressing mutant HPPD SEQ ID NO: 125; assay: spray test, herbicidal damage scoring; format: in vivo

Compound: bicyclopyrone
- tolerance in comparison to events expressing SEQ ID 122 [1]: increased tolerance
- IC50 [2]: 1 µM

Compound: Cn1nnnc1NC(=O)c1ccc(C(F)(F)F)nc1-n1cncn1 [Herbicide D, N-(1-methyltetrazol-5-yl)-2-(1,2,4-triazol-1-yl)-6-(trifluoromethyl)pyridine-3-carboxamide]
- IC50 [3]: 95 µM
- IC50 [4]: 85.9 µM

Compound: COc1ccc(-n2nc(C)cc(C(=O)C3C(=O)CCCC3=O)c2=O)cc1OC [Herbicide C, dioxopyritrione]
- tolerance ([5]; SEQ ID 125 plants, 100 g/ha (Table 3.4)): display tolerance
- herbicidal damage scoring, Herbicide C (200 g/ha) ([5]; Table 3.4, 14 days after treatment, SEQ ID 125, 100=complete death, 0=no damage, one value per event): 60 and 80 and 75 and 85
